Values quoted from earlier work in PubChem BioAssay AID1259409 (Chemical Carcinogenesis Research Information System (CCRIS), 2018).

Test system: rodent chemically induced tumor inhibition, incidence and multiplicity
Test: CCRIS tumor inhibitor studies
Text: The CCRIS database contains chemical records with carcinogenicity, mutagenicity, tumor promotion, and tumor inhibition test results. It was developed by the National Cancer Institute (NCI). Data are derived from studies cited in primary journals, current awareness tools, NCI reports, and other sources. Test results have been reviewed by experts in carcinogenesis and mutagenesis.
CCRIS provides historical information from the years 1985 - 2011. It is no longer updated.
This is an archive assay for CCRIS tumor inhibitor studies.

O=C(O)/C=C/c1ccc(O)c(O)c1
tumour outcome (control, treated, inhibition, significance) (Carcinogen: 4-NITROQUINOLINE-1-OXIDE, 56-57-5, Dose [Inhibitor]: 0, 500 PPM IN DIET FOR 7 WK BEGINNING 1 WK PRIOR TO START OF CARCINOGEN TREATMENT (STUDY DURATION: 32 WK), Route [Inhibitor]: ORAL, Species: RAT, Strain/Sex: F344/MALE, Target Tissue: Type of Lesion: TONGUE: PAPILLOMA, Dose [Carcinogen]: 20 PPM IN DRINKING WATER FOR 5 WK, Promoter: NONE USED): 1/15 (7%), 0/15 (0%), 100%, not significant
tumour outcome (control, treated, inhibition, significance) (Carcinogen: 7,12-DIMETHYLBENZ[A]ANTHRACENE, 57-97-6, Dose [Inhibitor]: 0.5% IN POWDERED DIET BEGINNING 1 WK POST CARCINOGEN DOSE FOR 51 WK (STUDY DURATION: 52 WK), Route [Inhibitor]: ORAL, Species: RAT, Strain/Sex: SPRAGUE-DAWLEY/FEMALE, Target Tissue: Type of Lesion: EAR DUCT: BENIGN TUMOR, Dose [Carcinogen]: 2.5 MG/100 G BW IN 0.5 ML SESAME OIL ONCE, Promoter: NONE USED): 7/19 (37%), 10/19 (53%), -43%, not calculated
tumour outcome (control, treated, inhibition, significance) (Carcinogen: 7,12-DIMETHYLBENZ[A]ANTHRACENE, 57-97-6, Dose [Inhibitor]: 0.5% IN POWDERED DIET BEGINNING 1 WK POST CARCINOGEN DOSE FOR 51 WK (STUDY DURATION: 52 WK), Route [Inhibitor]: ORAL, Species: RAT, Strain/Sex: SPRAGUE-DAWLEY/FEMALE, Target Tissue: Type of Lesion: MAMMARY GLAND: CARCINOMA, Dose [Carcinogen]: 2.5 MG/100 G BW IN 0.5 ML SESAME OIL ONCE, Promoter: NONE USED): 6/19 (32%), 9/19 (47%), -50%, not calculated
tumour outcome (control, treated, inhibition, significance) (Carcinogen: 7,12-DIMETHYLBENZ[A]ANTHRACENE, 57-97-6, Dose [Inhibitor]: 0.5% IN POWDERED DIET BEGINNING 1 WK POST CARCINOGEN DOSE FOR 51 WK (STUDY DURATION: 52 WK), Route [Inhibitor]: ORAL, Species: RAT, Strain/Sex: SPRAGUE-DAWLEY/FEMALE, Target Tissue: Type of Lesion: MAMMARY GLAND: FIBROADENOMA, Dose [Carcinogen]: 2.5 MG/100 G BW IN 0.5 ML SESAME OIL ONCE, Promoter: NONE USED): 15/19 (79%), 11/19 (58%), 27%, not calculated
tumour outcome (control, treated, inhibition, significance) (Carcinogen: 7,12-DIMETHYLBENZ[A]ANTHRACENE, 57-97-6, Dose [Inhibitor]: 10 UMOL IN 200 µL ACETONE/DMSO (90:10) 2/WK FOR 19 WK BEGINNING 1 WK POST CARCINOGEN DOSE (STUDY DURATION: 20 WK), Route [Inhibitor]: DERMAL, Species: MOUSE, Strain/Sex: CD-1/FEMALE, Target Tissue: Type of Lesion: SKIN: PAPILLOMA, Dose [Carcinogen]: 200 NMOL IN 200 µL ACETONE ONCE, Promoter: 12-O-TETRADECANOYLPHORBOL-13-ACETATE, 16561-29-8): 68%, 47%, 31%, not calculated
tumour outcome (control, treated, inhibition, significance) (Carcinogen: 7,12-DIMETHYLBENZ[A]ANTHRACENE, 57-97-6, Dose [Inhibitor]: 20 UMOL IN 200 µL ACETONE/DMSO (90:10) 2/WK FOR 19 WK BEGINNING 1 WK POST CARCINOGEN DOSE (STUDY DURATION: 20 WK), Route [Inhibitor]: DERMAL, Species: MOUSE, Strain/Sex: CD-1/FEMALE, Target Tissue: Type of Lesion: SKIN: PAPILLOMA, Dose [Carcinogen]: 200 NMOL IN 200 µL ACETONE ONCE, Promoter: 12-O-TETRADECANOYLPHORBOL-13-ACETATE, 16561-29-8): 68%, 38%, 44%, not calculated
tumour outcome (control, treated, inhibition, significance) (Carcinogen: BENZO[A]PYRENE, 50-32-8, Dose [Inhibitor]: 0.06 MMOL/G OF DIET STARTING 8 D BEFORE AND CONTINUING THROUGH 3 D AFTER LAST CARCINOGEN TREATMENT (STUDY DURATION: 148, Route [Inhibitor]: ORAL, Species: MOUSE, Strain/Sex: ICR/FEMALE, Target Tissue: Type of Lesion: FORESTOMACH: NEOPLASM, Dose [Carcinogen]: 1 MG IN 0.2 ML CORN OIL 2/WK FOR 4 WK, Promoter: NONE USED): 100%, 94%, 6%, not significant
tumour outcome (control, treated, inhibition, significance) (Carcinogen: N-NITROQUINOLINE-1-OXIDE, 56-57-5, Dose [Inhibitor]: 0, 500 PPM IN DIET FOR 7 WK BEGINNING 1 WK PRIOR TO START OF CARCINOGEN TREATMENT (STUDY DURATION: 32 WK), Route [Inhibitor]: ORAL, Species: RAT, Strain/Sex: F344\MALE, Target Tissue: Type of Lesion: TONGUE: CARCINOMA, Dose [Carcinogen]: 20 PPM IN DRINKING WATER FOR 5 WK, Promoter: NONE USED): 9/15 (60%), 0/15 (0%), 100%, p=0.00035
